From patent publication US20200199541A1, “BLOOD VESSEL ORGANOID, METHODS OF PRODUCING AND USING SAID ORGANOIDS” (IMBA - INSTITUT FÜR MOLEKULARE BIOTECHNOLOGIE GMBH, priority 2017, published 2020) come the findings set out here.

For assay [1], the system named is human blood vessel organoids. Nature of the assay: Diabetic basement membrane thickening (Collagen IV) in human blood vessel organoids cultured in diabetic medium. It is filed as cell-based. The following applies: for diabetic basement membrane thickening (Col IV) on blocking Notch pathway members: 2 weeks diabetic media (hyperglycemia + IL-6 + TNF-a), blocking antibodies or non-crosslinked recombinant proteins; for high glucose/TNFα/IL6-induced thickening of the basal blood vessel membrane (Collagen IV): diabetic medium 75 mM Glucose, 1 ng/mL TNFα, 1 ng/mL IL-6, drug doses (DAPT 25 μM); for increase of Col IV+ basement membrane under diabetic conditions: 75 mM Glucose, 1 ng/mL IL-6, 1 ng/mL TNF-α, 10 μM RO4929097, 1 μM Dehydroxy-LY411575, 1 μM LY411575. On the procedure: Modeling diabetic vasculopathy in human vascular organoids. Established endothelial networks in vascular organoids were cultured in a non-diabetic control medium (17 mM Glucose) or diabetic medium (75 mM Glucose, in the presence of absence of human TNFα (1 ng/mL, Invitrogen PHC3011) and/or IL-6 (1 ng/mL, Peprotech 200-06)) for up to 3 weeks before the basement membrane was investigated by Collagen type IV immunostaining and electron microscopy. D-Mannitol was used in non-diabetic media to control for hyperosmotic effects. For basement membrane quantifications, acquired z-stacks were analysed and the thickness of ColIV coats around luminal structures were measured using ImageJ software. For drug treatment, organoids were exposed to diabetic medium (75 mM Glucose, 1 ng/mL human TNFα, and 1 ng/mL IL-6) in the presence or absence of the following drugs: 2,4-Thiazolidinedione (5 mM, Abcam ab144811), Metformin (5 mM, Abcam ab120847), Acarbose (80 μg/mL, Sigma A8980), […] (100 μM, Sigma N3538), Diphenyleneiodonium (10 μM), Glimepiride (30 nM, Sigma G2295), Pioglitazone (10 μM, Sigma E6910). The following small molecule inhibitors were used: N-Acetyl-L-cysteine (500 μM, Sigma, A7250), CHIR99021 (10 μM, Tocris 4423), Goe6976 (100nM, Merck U51365250), MK2206 (10 μM, EubioS1078), QNZ (10 μM, Eubio […]), 5B203580 (10 μM, Eubio […]), SCH772984 (500 nM, Eubio […], Calbiochem 688000), DAPT (25 μM, Sigma D5942), 5B431542 (10 μM, Abcam ab120163).

In assay [2] the test system is human vascular organoid transplants. Nature of the assay: Human CD31+ blood vessel density of vascular organoid transplants in diabetic STZ mice. The assay is classed as in vivo, mouse. Conditions: diabetic STZ NSG mice, DAPT 5 mg/kg. The procedure:
(§1) Modeling diabetic vasculopathy in human vascular organoids in vivo. Immunodeficient NSG mice carrying human vascular organoid transplants were daily i.p. injected with 40 mg/kg Streptozotocin (STZ) (Merck, 572201) for 5 consecutive days. Every day, STZ was freshly dissolved in citrate buffer (pH4.6) and immediately used. Diabetes was confirmed (blood glucose >300 mg/dL) by measuring non-fasting glucose using the OneTouch UltraEasy system (Lifetouch, AW 06637502C). DAPT (Selleckchem 52215) was dissolved in ethanol and injected with 90% cornoil for 5 consecutive days at 5 mg/kg with 2 days of no treatment per week. Anti-Notch3 blocking antibodies (R&D AF1559) were injected 3 time/week at lmg/kg. For quantifying vessel leakage, the FITC-Dextran^+ area was measured and normalized to the area of perfused human blood vessels (hCD31^+) using the FIJI software. This ratio was then further normalized to control non-diabetic mice. Permeability of long-term DAPT treated vessels were measured after 2 days of treatment stop to avoid measuring acute effects of DAPT on vessel permeability.

Assay [3] shares this test system. Nature of the assay: Vessel leakage (FITC-Dextran extravasation) of human vascular organoid transplants in diabetic STZ mice. It is filed as in vivo, mouse. Conditions: diabetic STZ NSG mice, DAPT 5 mg/kg. On the procedure:
as §1

For assay [4], the system named is human blood vessel organoids. Put plainly: Diabetic basement membrane thickening (Collagen IV) in human blood vessel organoids cultured in diabetic medium. The assay is classed as cell-based. The following applies: diabetic cocktail, indicated DAPT doses (FIG. 5).

“Also recorded” adds a separate entry of the source.

Turning to “D114: non-crosslinked recombinant protein (Notch ligand, Delta-like protein 4) used as blocker”, the “diabetic basement membrane thickening (Col IV) on blocking Notch pathway members” value in assay [1] is “completely blocked basement membrane thickening”.
Turning to `C[C@H](NC(=O)Cc1cc(F)cc(F)c1)C(=O)N[C@H](C(=O)OC(C)(C)C)c1ccccc1` [DAPT], the “human blood vessel (CD31+) density in transplanted vascular organoids” value in assay [2] is recorded as “restores human vessel density; also recorded: rescued the loss of CD31^+ human blood vessels”. Moreover, in assay [1], the “high glucose/TNFα/IL6-induced thickening of the basal blood vessel membrane (Collagen IV)” value (shortened to “high glucose/TNFα/IL6-induced thickening”) is “abrogates thickening of the vascular basement membrane; also recorded: can prevent diabetic vascular basement membrane thickening; also recorded: completely abrogated the expansion of collagen IV and basal membrane thickening; also recorded: nearly completely prevented the thickening of the basal membrane”. Also, the “vessel permeability / leakage (FITC-Dextran extravasation)” value in assay [3] is “normalized diabetic vessel permeability; also recorded: excessive blood vessel leakiness was rescued”. Besides, in assay [4], the “dose dependence of prevention of basement membrane thickening (ColIV thickness)” value is recorded as “dose dependent; also recorded: dose-dependent”.
Take `O=C1CSC(=O)N1` [thiazolidinedione, 2,4-Thiazolidinedione]: the “high glucose/TNFα/IL6-induced thickening” value in assay [1] is recorded as “none of the medicines that we tested”.
With `CCC1=C(C)CN(C(=O)NCCc2ccc(S(=O)(=O)NC(=O)N[C@H]3CC[C@H](C)CC3)cc2)C1=O` [glimepiride, Glimepiride], the “high glucose/TNFα/IL6-induced thickening” value in assay [1] is on record as “none of the medicines that we tested”.
On the same count and under the same terms, to `c1ccc2c(c1)[I+]c1ccccc1-2` [diphenyleneiodonium, Diphenyleneiodonium] belongs “none of the medicines that we tested”; to `CC(C)[C@H]1CC[C@H](C(=O)N[C@H](Cc2ccccc2)C(=O)O)CC1` [nateglindine, Nateglindine], “none of the medicines that we tested”.
Regarding `C[C@H](NC(=O)Cc1cc(F)cc(F)c1)C(=O)N[C@@H]1C(=O)N(C)c2ccccc2-c2ccccc21` [Dehydroxy-LY411575], the “increase of Col IV+ basement membrane under diabetic conditions” value (from here on “increase of Col IV+ basement membrane”) in assay [1] was “prevent the increase of basement membrane (Col IV) under diabetic conditions”.
As for `CC(C)(C(=O)NCC(F)(F)C(F)(F)F)C(=O)N[C@@H]1C(=O)Nc2ccccc2-c2ccccc21` [RO4929097], the “increase of Col IV+ basement membrane” value in assay [1] is “prevent the increase of basement membrane (Col IV) under diabetic conditions”.
Take `CN(C)C(=N)N=C(N)N` [metformin, Metformin]: the “high glucose/TNFα/IL6-induced thickening” value in assay [1] was “none of the medicines that we tested”.
`C[C@H](NC(=O)[C@@H](O)c1cc(F)cc(F)c1)C(=O)N[C@@H]1C(=O)N(C)c2ccccc2-c2ccccc21` [LY411575]: the “increase of Col IV+ basement membrane” value in assay [1] was “prevent the increase of basement membrane (Col IV) under diabetic conditions”.

B1: D111: non-crosslinked recombinant protein (Notch ligand) used as blocker (protein, UniProt O00548 18-723, looked up)
Delta-like protein 1: QVWSSGVFELKLQEFVNKKGLLGNRNCCRGGAGPPPCACRTFFRVCLKHYQASVSPEPPCTYGSAVTPVLGVDSFSLPDGGGADSAFSNPIRFPFGFTWPGTFSLIIEALHTDSPDDLATENPERLISRLATQRHLTVGEEWSQDLHSSGRTDLKYSYRFVCDEHYYGEGCSVFCRPRDDAFGHFTCGERGEKVCNPGWKGPYCTEPICLPGCDEQHGFCDKPGECKCRVGWQGRYCDECIRYPGCLHGTCQQPWQCNCQEGWGGLFCNQDLNYCTHHKPCKNGATCTNTGQGSYTCSCRPGYTGATCELGIDECDPSPCKNGGSCTDLENSYSCTCPPGFYGKICELSAMTCADGPCFNGGRCSDSPDGGYSCRCPVGYSGFNCEKKIDYCSSSPCSNGAKCVDLGDAYLCRCQAGFSGRHCDDNVDDCASSPCANGGTCRDGVNDFSCTCPPGYTGRNCSAPVSRCEHAPCHNGATCHERGHRYVCECARGYGGPNCQFLLPELPPGPAVVDLTEKLEGQGGPFPWVAVCAGVILVLMLLLGCAAVVVCVRLRLQKHRPPADPCRGETETMNNLANCQREKDISVSIIGATQIKNTNKKADFHGDHSADKNGFKARYPAVDYNLVQDLKGDDTAVRDAHSKRDTKCQPQGSSGEEKGTPTTLRGGEASERKRPDSGCSTSKDTKYQSVYVISEEKDECVIATEV
B1: in assay [1], the “diabetic basement membrane thickening (Col IV) on blocking Notch pathway members” value was “did not impact on the diabetes mediated thickening of the vascular basement membrane”.
